Results on one compound are retold here after ChEMBL document CHEMBL2417443, “Efficient synthesis and antiproliferative activity of novel thioether-substituted flavonoids” (Eur J Med Chem, 2013).

The pIC50 is −log10 of the IC50, conventionally taken in molar units. High values mean a low IC50, low ones a high IC50.

pIC50: −log10 of the molar value.

Experiment [1] deals with SW480. The experiment can be described thus: Cell cycle arrest in human SW480 cells assessed as accumulation at G2/M phase after 48 hrs by propidium iodide staining-based flow cytometry. It counts as functional. (A flow cytometer gives signals particle by particle.)
Experiment [2] relates to SW480. The experiment can be described thus: Cell cycle arrest in human SW480 cells assessed as accumulation at G2/M phase at 1.2 uM after 48 hrs by propidium iodide staining-based flow cytometry (reference value: 13.99 +/- 0.35%). The format is functional.
For experiment [3], the system named is SW480. The experiment can be described thus: Cell cycle arrest in human SW480 cells assessed as accumulation at G2/M phase at 1 uM after 48 hrs by propidium iodide staining-based flow cytometry (reference value: 13.99 +/- 0.35%). It counts as functional.
The test system of experiment [4] is SW480. The experiment in a line: Cell cycle arrest in human SW480 cells assessed as accumulation at G2/M phase at 0.8 uM after 48 hrs by propidium iodide staining-based flow cytometry (reference value: 13.99 +/- 0.35%). It counts as functional.
For experiment [5], the system named is SW480. The experiment in a line: Cell cycle arrest in human SW480 cells assessed as accumulation at S phase at 1.2 uM after 48 hrs by propidium iodide staining-based flow cytometry (reference value: 14.01 +/- 0.86%). The format is functional.
In experiment [6] the test system is SW480. The experiment in a line: Cell cycle arrest in human SW480 cells assessed as accumulation at S phase at 1 uM after 48 hrs by propidium iodide staining-based flow cytometry (reference value: 14.01 +/- 0.86%). The format is functional.
For experiment [7], the system named is SW480. The experiment in a line: Cell cycle arrest in human SW480 cells assessed as accumulation at S phase at 0.8 uM after 48 hrs by propidium iodide staining-based flow cytometry (reference value: 14.01 +/- 0.86%). It counts as functional.
Experiment [8] relates to SW480. The experiment can be described thus: Cell cycle arrest in human SW480 cells assessed as accumulation at G0/G1 phase at 1.2 uM after 48 hrs by propidium iodide staining-based flow cytometry (reference value: 72.00 +/- 4.30%). The format is functional.
The subject of experiment [9] is SW480. The experiment can be described thus: Cell cycle arrest in human SW480 cells assessed as accumulation at G0/G1 phase at 0.8 uM after 48 hrs by propidium iodide staining-based flow cytometry (reference value: 72.00 +/- 4.30%). It counts as functional.
Experiment [10] deals with SW480. The experiment can be described thus: Cell cycle arrest in human SW480 cells assessed as accumulation at G0/G1 phase at 1 uM after 48 hrs by propidium iodide staining-based flow cytometry (reference value: 72.00 +/- 4.30%). It counts as functional.
For experiment [11], the system named is HeLa. The experiment can be described thus: Ratio of 5-fluorouracil IC50 to compound IC50 for human HeLa cells. It counts as functional.
Experiment [12] has as its system MCF7. The experiment can be described thus: Ratio of 5-fluorouracil IC50 to compound IC50 for human MCF7 cells. It counts as functional.
In experiment [13] the test system is HEp-2. The experiment in a line: Ratio of 5-fluorouracil IC50 to compound IC50 for human Hep2 cells. It counts as functional.
Experiment [14] in a line: Ratio of 5-fluorouracil IC50 to compound IC50 for human MDA-MB-435S cells. The format is functional.
The subject of experiment [15] is SW480. The experiment can be described thus: Ratio of 5-fluorouracil IC50 to compound IC50 for human SW480 cells. It counts as functional.
Experiment [16] in a line: Ratio of 5-fluorouracil IC50 to compound IC50 for human LM7 cells. It counts as functional.
The subject of experiment [17] is MCF7. The experiment in a line: Cytotoxicity against human MCF7 cells after 72 hrs by MTT assay. It counts as functional, cell-based. The following applies: MCF7, 72 h.
In experiment [18] the test system is HEp-2. The experiment can be described thus: Cytotoxicity against human Hep2 cells after 72 hrs by MTT assay. It counts as functional, cell-based. The following applies: HEp-2, 72 h. Background: Tetrazolium dyes change colour on reduction, which living cells bring about.
The nature of experiment [19]: Cytotoxicity against human MDA-MB-435S cells after 72 hrs by MTT assay. It counts as functional, cell-based.
Experiment [20] concerns SW480. The experiment can be described thus: Cytotoxicity against human SW480 cells after 72 hrs by MTT assay. The format is functional, cell-based. As to conditions: SW480, 72 h.
A short description of experiment [21]: Cytotoxicity against human LM7 cells after 72 hrs by MTT assay. As to conditions: LM7, 72 h. The format is functional, cell-based.
Experiment [22] relates to HeLa. The experiment in a line: Cytotoxicity against human HeLa cells after 72 hrs by MTT assay. The format is functional, cell-based.

For the compound `Cc1nnc(SCc2coc3ccccc3c2=O)s1`, the Activity entry was “Dose-dependent effect” with SW480 [1]; 38.03% in the experiment on SW480 [2]; 26.74% with SW480 [3]; 22.03% in the experiment with SW480 [4]; 19.13% in the experiment on SW480 [5]; 18.27% with SW480 [6]. Besides, the Activity with SW480 [7] was determined as 15.47%; with SW480 [8], 42.84%; with SW480 [9], 62.5%; with SW480 [10], 54.99%. Moreover, the “Ratio IC50” value in the experiment with HeLa [11] is given as 0.7; in the experiment on MCF7 [12] it was 0.5; in the experiment with HEp-2 [13], 33.9; in experiment [14], 8.3; with SW480 [15], 2.3; in [16], 6.6. For the same compound, the pIC50 with MCF7 [17] is 5.17; with HEp-2 [18], 5.54; in [19], 6.20; in the experiment on SW480 [20], 6.00; in experiment [21], 6.37; in the experiment with HeLa [22] it was 5.64.
